Measured values taken from patent US5591438A, “Natamycin recovery” (Bio-Technical Resources L.P., priority 1994, dated 1997).
In brackets after ≈: the same amount, converted by molar mass.

Experiments:
Format in all cases: physicochemical
[1] = Natamycin methyl ester formation in methanol (stability of natamycin in acidified methanol)
Procedure: Formation of natamycin methyl ester, an undesired by-product, depends on the pH, the natamycin-methanol contact time, and the temperature (see Table 1). It is important that this step be carried out at a temperature of about 0°-25° C., since formation of natamycin methyl ester and other undesirable by-products is minimized. The higher the temperature or the longer the contact time, the greater the by-product production at a given pH. To avoid excessive natamycin methyl ester formation at 15°-25° C., short contact times, i.e., 0.5 hr or less, should be used. At about […], the extraction time should not exceed about 1.5 hr. An extraction temperature of about 0°-15° C. is preferred.
Natamycin Methyl Ester Formation in Methanol

[2] = physchem
Source text: Since water content of the extraction medium depends on the amount of water in the feed stream, it is desirable to remove as much water as possible from the feed stream before Step 1. If the feed stream contains about 70% by volume water, about three times as much methanol is required than when starting with a substantially dry feed stream. If the feed stream contains about 40% by volume water, about twice as much methanol is required.
The pH depends to some extent on the water content of the extraction medium and the yield desired. To obtain a precipitation yield of about 90% or more, the natamycin concentration in the extraction medium should be about 40 g/L. In the absence of water this requires a pH of about 4.5. At about 30% water/70% methanol (by volume) this requires a pH of about 2.5 (Table 2).
Solubility of Natamycin in Methanol and Methanol/Water

[3] = physchem; conditions: methanol/cacl2, organic solvent or mixture, Solubility of Natamycin in Methanol/CaCl2 Extractant
Source text: To precipitate a high percentage of the natamycin, the water content of the extraction liquor should be increased to at least 50% by volume. Table 3 indicates the solubility of natamycin in a methanol/water/calcium chloride solution as a function of water content.
Solubility of Natamycin in Methanol/CaCl2 *
Extractant at Various Water Concentrations

[4] = Ester formation in methanol with 40 g/L CaCl2 (stability of natamycin); conditions: for Methyl Ester (% of product) / Natamycin (concentration in methanol with CaCl2): methanol with 40 g/L CaCl2
Procedure: This process can be run at pH 2-9, preferably at pH 6-8. If the pH is low, shorter extraction times should be used because acidic conditions promote natamycin methyl ester formation. (See Table 4) If the pH is above 6, ester formation is slower. Any reasonable temperature may be used (i.e. 20°-30° C.).
Ester Formation in Methanol with 40 g/L CaCl2

Question: Which “Methyl Ester (% by weight of product)” value ([1]; 4 °C, pH 2.4, 0 hr) does the source give for `C[C@@H]1C/C=C/C=C/C=C/C=C/[C@H](O[C@@H]2O[C@H](C)[C@@H](O)[C@H](N)[C@@H]2O)C[C@@H]2O[C@](O)(C[C@@H](O)C[C@H]3O[C@@H]3/C=C/C(=O)O1)C[C@H](O)[C@H]2C(=O)O` [Natamycin, natamycin] here?
Answer: 0.4 % by weight of product

Question: And the “Natamycin (concentration in methanol)” value ([1]; 4 °C, pH 2.4, 0 hr)?
Answer: 42 g/L

Question: What about the “Methyl Ester (% by weight of product)” value ([1]; 4 °C, pH 2.4, 2 hr) of the same molecule?
Answer: 1.3 % by weight of product

Question: What about the “Natamycin (concentration in methanol)” value ([1]; 4 °C, pH 2.4, 2 hr) of the same molecule?
Answer: 42 g/L

Question: What about the “Methyl Ester (% by weight of product)” value ([1]; 4 °C, pH 2.4, 8.5 hr) of the same molecule?
Answer: 2.7 % by weight of product

Question: What about the “Natamycin (concentration in methanol)” value ([1]; 4 °C, pH 2.4, 8.5 hr) of the same molecule?
Answer: 39 g/L

Question: And the “Methyl Ester (% by weight of product)” value ([1]; 4 °C, pH 2.4, 19 hr)?
Answer: 5.2 % by weight of product

Question: And the “Natamycin (concentration in methanol)” value ([1]; 4 °C, pH 2.4, 19 hr)?
Answer: 37 g/L

Question: What about the “Methyl Ester (% by weight of product)” value ([1]; 23 °C, pH 2.4, 0 hr) of the same molecule?
Answer: 0 % by weight of product

Question: And the “Natamycin (concentration in methanol)” value ([1]; 23 °C, pH 2.4, 0 hr)?
Answer: 44 g/L

Question: What about the “Methyl Ester (% by weight of product)” value ([1]; 23 °C, pH 2.4, 1 hr) of the same molecule?
Answer: 3.9 % by weight of product

Question: What about the “Natamycin (concentration in methanol)” value ([1]; 23 °C, pH 2.4, 1 hr) of the same molecule?
Answer: 42 g/L

Question: And the “Methyl Ester (% by weight of product)” value ([1]; 23 °C, pH 2.4, 2 hr)?
Answer: 7.3 % by weight of product

Question: And the “Natamycin (concentration in methanol)” value ([1]; 23 °C, pH 2.4, 2 hr)?
Answer: 41 g/L

Question: And the “Methyl Ester (% by weight of product)” value ([1]; 23 °C, pH 2.4, 3 hr)?
Answer: 9.7 % by weight of product

Question: What about the “Natamycin (concentration in methanol)” value ([1]; 23 °C, pH 2.4, 3 hr) of the same molecule?
Answer: 38 g/L

Question: What about the “Methyl Ester (% by weight of product)” value ([1]; 23 °C, pH 3.2, 0 hr) of the same molecule?
Answer: 0 % by weight of product

Question: What about the “Natamycin (concentration in methanol)” value ([1]; 23 °C, pH 3.2, 0 hr) of the same molecule?
Answer: 38 g/L

Question: And the “Methyl Ester (% by weight of product)” value ([1]; 23 °C, pH 3.2, 1 hr)?
Answer: 2.3 % by weight of product

Question: And the “Natamycin (concentration in methanol)” value ([1]; 23 °C, pH 3.2, 1 hr)?
Answer: 38 g/L

Question: And the “Methyl Ester (% by weight of product)” value ([1]; 23 °C, pH 3.2, 2 hr)?
Answer: 3.9 % by weight of product

Question: What about the “Natamycin (concentration in methanol)” value ([1]; 23 °C, pH 3.2, 2 hr) of the same molecule?
Answer: 37 g/L

Question: What about the “Methyl Ester (% by weight of product)” value ([1]; 23 °C, pH 3.2, 4 hr) of the same molecule?
Answer: 7.4 % by weight of product

Question: And the “Natamycin (concentration in methanol)” value ([1]; 23 °C, pH 3.2, 4 hr)?
Answer: 34 g/L

Question: What about the “Methyl Ester (% by weight of product)” value ([1]; 23 °C, pH 3.2, 6 hr) of the same molecule?
Answer: 9.2 % by weight of product

Question: What about the “Natamycin (concentration in methanol)” value ([1]; 23 °C, pH 3.2, 6 hr) of the same molecule?
Answer: 32 g/L

Question: And the “Methyl Ester (% by weight of product)” value ([1]; 23 °C, pH 3.2, 16 hr)?
Answer: 14 % by weight of product

Question: What about the “Natamycin (concentration in methanol)” value ([1]; 23 °C, pH 3.2, 16 hr) of the same molecule?
Answer: 23 g/L

Question: What about the “Methyl Ester (% by weight of product)” value ([1]; 23 °C, pH 4.0, 0 hr) of the same molecule?
Answer: 0 % by weight of product

Question: What about the “Natamycin (concentration in methanol)” value ([1]; 23 °C, pH 4.0, 0 hr) of the same molecule?
Answer: 41 g/L

Question: What about the “Methyl Ester (% by weight of product)” value ([1]; 23 °C, pH 4.0, 2 hr) of the same molecule?
Answer: 2.3 % by weight of product

Question: What about the “Natamycin (concentration in methanol)” value ([1]; 23 °C, pH 4.0, 2 hr) of the same molecule?
Answer: 40 g/L

Question: And the “Methyl Ester (% by weight of product)” value ([1]; 23 °C, pH 4.0, 4 hr)?
Answer: 3.7 % by weight of product

Question: What about the “Natamycin (concentration in methanol)” value ([1]; 23 °C, pH 4.0, 4 hr) of the same molecule?
Answer: 39 g/L

Question: And the solubility in methanol [2]?
Answer: excellent solubility

Question: What about the “solubility in the extraction medium after acid addition” value [2] of the same molecule?
Answer: highly soluble

Question: What about the “solubility of natamycin in the extraction medium” value [2] of the same molecule?
Answer: decreases as the water increases

Question: And the solubility ([2]; methanol, pH 2, organic solvent or mixture)?
Answer: 94 mg/mL (≈ 141 mM)

Question: What about the solubility ([2]; methanol, pH 3.8, organic solvent or mixture) of the same molecule?
Answer: 78 mg/mL (≈ 117 mM)

Question: What about the solubility ([2]; methanol, pH 4.5, organic solvent or mixture) of the same molecule?
Answer: 50 mg/mL (≈ 75.1 mM)

Question: What about the solubility ([2]; methanol, pH 7, organic solvent or mixture) of the same molecule?
Answer: 6 mg/mL (≈ 9.01 mM)

Question: What about the solubility ([2]; methanol/water, pH 2.4, organic solvent or mixture) of the same molecule?
Answer: 55 mg/mL (≈ 82.6 mM)

Question: And the solubility ([2]; methanol/water, pH 3.3, organic solvent or mixture)?
Answer: 18 mg/mL (≈ 27 mM)

Question: What about the solubility ([2]; methanol/water, pH 7, organic solvent or mixture) of the same molecule?
Answer: 4 mg/mL (≈ 6.01 mM)

Question: And the solubility [3]?
Answer: 91 mg/mL (≈ 137 mM)

Question: And the “Methyl Ester (% of product)” value ([4]; 5 °C, pH 4.4, 0 hr)?
Answer: 0 % of product

Question: What about the “Natamycin (concentration in methanol with CaCl2)” value ([4]; 5 °C, pH 4.4, 0 hr) of the same molecule?
Answer: 60 g/L

Question: What about the “Methyl Ester (% of product)” value ([4]; 5 °C, pH 4.4, 8 hr) of the same molecule?
Answer: 0.5 % of product

Question: And the “Natamycin (concentration in methanol with CaCl2)” value ([4]; 5 °C, pH 4.4, 8 hr)?
Answer: 60 g/L

Question: What about the “Methyl Ester (% of product)” value ([4]; 23 °C, pH 4.4, 0 hr) of the same molecule?
Answer: 0 % of product

Question: What about the “Natamycin (concentration in methanol with CaCl2)” value ([4]; 23 °C, pH 4.4, 0 hr) of the same molecule?
Answer: 72 g/L

Question: And the “Methyl Ester (% of product)” value ([4]; 23 °C, pH 4.4, 6 hr)?
Answer: 5.0 % of product

Question: And the “Natamycin (concentration in methanol with CaCl2)” value ([4]; 23 °C, pH 4.4, 6 hr)?
Answer: 67 g/L

Question: And the “Methyl Ester (% of product)” value ([4]; 23 °C, pH 5.3, 0 hr)?
Answer: 0 % of product

Question: What about the “Natamycin (concentration in methanol with CaCl2)” value ([4]; 23 °C, pH 5.3, 0 hr) of the same molecule?
Answer: 51 g/L

Question: What about the “Methyl Ester (% of product)” value ([4]; 23 °C, pH 5.3, 20 hr) of the same molecule?
Answer: 2.4 % of product

Question: What about the “Natamycin (concentration in methanol with CaCl2)” value ([4]; 23 °C, pH 5.3, 20 hr) of the same molecule?
Answer: 48 g/L

Question: What about the “Methyl Ester (% of product)” value ([4]; 23 °C, pH 6.1, 0 hr) of the same molecule?
Answer: 0 % of product

Question: And the “Natamycin (concentration in methanol with CaCl2)” value ([4]; 23 °C, pH 6.1, 0 hr)?
Answer: 51 g/L

Question: And the “Methyl Ester (% of product)” value ([4]; 23 °C, pH 6.1, 20 hr)?
Answer: 1.1 % of product

Question: And the “Natamycin (concentration in methanol with CaCl2)” value ([4]; 23 °C, pH 6.1, 20 hr)?
Answer: 49 g/L

Question: What about the “natamycin methyl ester formation” value ([4]; methanol/CaCl2, pH above 6) of the same molecule?
Answer: slower
